Patent publication EP1800684A1, “Novel alkyl phospholipid derivatives and uses thereof” (Zentaris GmbH, priority 2005, dated 2007)
Values after ≈ are worked out from the molar mass of the structure shown. Read-outs that look alike come from different tables or passages of the source.

Tests used:
[1] = system: Cryptocoocus gattii (ATCC 32608); assay: Anti-fungal susceptibility test (microdilution), fungus G; format: cell-based
Description: (§1) The antifungal activities of the test compounds (compounds of the invention and known prior art compounds) were measured according to standard microdilution methods (Cryptococcus/Aspergillus: Ghannoum et al., Journal of Clinical Microbiology 1992, 30 (11): 2881-2886; Candida: Reference method for broth dilution susceptibility testing of yeast: proposed standard, NCCLS document M27-P, National Committee for Clinical Laboratory Standards 1992, Villanova, Pa).
(§2) A serial dilution series starting from 64 µg/mL test compound per well down to 0.125 µg/mL test compound per well was applied for each test compound on each fungus. The MIC of each compound was defined as the concentration which produces no visible growth after 48 hours (Candida) and 72 hours (Cryptococcus, Aspergillus) of culture at 35° C.
(§3) The following fungi were assessed: • A) Candida albicans (ATCC 10231) • B) Candida albicans (ATCC 90028) • C) Candida albicans (strain TS3, Shrikantha et al., Journal of Bacteriology 2000, 182(6):1580-1591) • D) Candida parapsilosis (ATCC 22019) • E) Cryptocoocus neoformans (ATCC 90112) • F) Cryptocoocus neoformans (strain H99; Ganendren et al., Antimicrobial Agents and Chemotherapy, 2004, 48(5):1561-1569) • G) Cryptocoocus gattii (ATCC 32608) • H) Aspergillus fumigatus (ATCC 204305) • I) Aspergillus fumigatus (strain 322-384)

[2] = system: Aspergillus fumigatus (ATCC 204305); assay: Anti-fungal susceptibility test (microdilution), fungus H; format: cell-based; conditions: Aspergillus fumigatus, ATCC204305, no visible growth after 72 hours at 35° C, read-out: MIC
Description: as §1, §2, §3

[3] = system: Trypanosoma cruzi (Tulahuan-LACZ amstigotes in PEM); assay: In vitro drug activity assay, protozoon A (amastigotes in murine peritoneal macrophages, CPRG readout); format: cell-based; conditions: infected macrophages exposed for 3 days
Description: Murine (CD1) peritoneal macrophages were harvested 24 hours after starch induction and dispensed into 96-well plates at a concentration of 4 x 10^5 mL. After 24 hours, the cells were infected with Trypanosoma cruzi Tulahuan LAC-Z amastigotes (grown and cultured according to Buckner et al., Infection and Immunity 1999, 67(1): 403-409). 24 hours later, the infected cells were exposed to the test compounds (compounds of the invention as well as known prior art compounds) for 3 days and 50 µL of 500 µM CPRG-1% Nonidet P-40 was added to each well. The plates were read after 2 to 5 hours at 570 nm (Buckner et al., Antimicrobial Agents and Chemotherapy 1996, 40(11): 2592-2597). ED50 values were calculated with Msxlfit (IDBS).
(§4) The following protozoa were assessed: • A) Trypanosoma cruzi (Tulahuan-LACZ amstigotes in PEM, Lorente SO et al., Antimicrobial agents and chemotherapy 2004, 48(8): 2937-2950; Buckner et al., Infection and Immunity 1999, 67(1): 403-409; Buckner et al., Antimicrobial Agents and Chemotherapy 1996, 40(11): 2592-2597) • B) Trypanosoma brucei rhodesiense (strain STIB900, Lorente SO et al., Antimicrobial agents and chemotherapy 2004, 48(8): 2937-2950; Habtemariam S, BMC Pharmacology 2003, 3:6) • C) Plasmodium falciparum (strain K1, Korsinczky M et al., Antimicrobial agents and chemotherapy 2000, 44(8): 2100-2108; Thaitong S and Beale GH, Trans. R. Soc. Trop. Med. Hyg. 1981, 75: 271-273; Trager W and Jensen JB, Science 1976, 193: 673-675) • D) Plasmodium falciparum (strain 3D7, Mu et al., PLoS Biology 2005, 3(10): e335)

[4] = system: Plasmodium falciparum (strain 3D7); assay: In vitro drug susceptibility assay, protozoon D (3[H]-hypoxanthine method); format: cell-based
Description: (§5) Plasmodium falciparum strain K1 and strain 3D7 parasites were cultured according to Trager W and Jensen JB (Science 1976, 193: 673-675). In vitro drug susceptibility assays with the test compounds were carried out according to Korsinczky M et al. (Antimicrobial agents and chemotherapy 2000, 44(8): 2100-2108) and Fivelman QL et al. (Antimicrobial agents and chemotherapy 2004, 48(11): 4097-4102) using a ^3[H]-hypoxanthine radioisotope method. ED50 values were calculated with Msxlfit (IDBS).
as §4

[5] = system: Candida parapsilosis (ATCC 22019); assay: Anti-fungal susceptibility test (microdilution), fungus D; format: cell-based; conditions: ATCC22019, no visible growth after 48 hours at 35° C, read-out: MIC
Description: as §1, §2, §3

[6] = system: Cryptocoocus neoformans (strain H99); assay: Anti-fungal susceptibility test (microdilution), fungus F; format: cell-based
Description: as §1, §2, §3

[7] = system: Cryptocoocus neoformans (ATCC 90112); assay: Anti-fungal susceptibility test (microdilution), fungus E; format: cell-based
Description: as §1, §2, §3

[8] = system: Candida albicans (ATCC 10231); assay: Anti-fungal susceptibility test (microdilution), fungus A; format: cell-based; conditions: Candida albicans, ATCC10231, no visible growth after 48 hours at 35° C, read-out: MIC
Description: as §1, §2, §3

[9] = system: Aspergillus fumigatus (strain 322-384); assay: Anti-fungal susceptibility test (microdilution), fungus I; format: cell-based; conditions: Aspergillus fumigatus, no visible growth after 72 hours at 35° C, read-out: MIC
Description: as §1, §2, §3

[10] = system: Candida albicans (ATCC 90028); assay: Anti-fungal susceptibility test (microdilution), fungus B; format: cell-based; conditions: Candida albicans, ATCC90028, no visible growth after 48 hours at 35° C, read-out: MIC
Description: as §1, §2, §3

[11] = system: Trypanosoma brucei rhodesiense (strain STIB900); assay: In vitro drug activity assay, protozoon B (bloodstream form trypomastigotes, Alamar Blue); format: cell-based; conditions: incubated for 72 hours
Description: Trypanosoma brucei rhodesiense STIB900 bloodstream form trypomastigotes were maintained in HMI-18 medium (Hirumi H, Hirumi K, J Parasitol. 1989, 75(6):985-989) with 15% heat-inactivated fetal calf serum at 37°C, 5% CO2, humidified atmosphere. Trypomastigotes were washed and resuspended in fresh medium at a concentration of 2 x 10^5 mL. Test compounds were given to the trypomastigotes and plates were incubated for 72 hours at 37°C, 5% CO2, humidified atmosphere. At 72 hours the plates were assessed microscopically before Alamar Blue was added (Raz et al., Acta Trop. 1997, 68: 139-147). Plates were read after 5 to 6 hours at EX/EM 530/585 nm with a filter cutoff at 550 nm. ED50 values were calculated with Msxlfit (IDBS).
as §4

[12] = system: Candida albicans (strain TS3); assay: Anti-fungal susceptibility test (microdilution), fungus C; format: cell-based; conditions: Candida albicans, no visible growth after 48 hours at 35° C, read-out: MIC
Description: as §1, §2, §3

[13] = system: Plasmodium falciparum (strain K1); assay: In vitro drug susceptibility assay, protozoon C (3[H]-hypoxanthine method); format: cell-based
Description: as §5, §4

Leishmaniasis = conditions: clinical phase III trials, parenteral; cited from earlier work

## CCCCCCCCCCCCCCCCOP(=O)([O-])OCC[N+]12CCC(CC1)CC2 [Compound 3, Phosphoric acid 2-(1-aza-bicyclo[2.2.2]oct-1-yl)-ethyl ester hexadecyl ester]
[1]; 72 h
  MIC: 0.75 µg/mL (≈ 1.63 µM)
[2]
  MIC: 3 µg/mL (≈ 6.53 µM)
[3]
  ED50 (µg/mL): 0,33 µg/mL
[4]
  ED50 (µg/mL): 2,25 µg/mL
[5]
  MIC: 2 µg/mL (≈ 4.35 µM)
[6]; 72 h
  MIC: 1 µg/mL (≈ 2.18 µM)
[7]; 72 h
  MIC: 1.5 µg/mL (≈ 3.26 µM)
[8]
  MIC: 1 µg/mL (≈ 2.18 µM)
[9]
  MIC: 2 µg/mL (≈ 4.35 µM)
[10]
  MIC: 1 µg/mL (≈ 2.18 µM)
[11]
  ED50 (µg/mL): 25,03 µg/mL
[12]
  MIC: 2 µg/mL (≈ 4.35 µM)
[13]
  ED50 (µg/mL): 8,03 µg/mL

## CCCCCCCCCCCCCCCCCCOP(=O)([O-])OC1CC[N+](CC)(CC)CC1 [Compound 5, Phosphoric acid 1,1-diethyl-piperidin-4-yl ester octadecyl ester]
[1]; fungus G, no visible growth after 72 hours at 35° C, read-out: MIC
  MIC: 0.75 µg/mL (≈ 1.53 µM)
[2]
  MIC: 6 µg/mL (≈ 12.3 µM)
[3]
  ED50 (µg/mL): 1,43 µg/mL
[4]
  ED50 (µg/mL): 16,31 µg/mL
[5]
  MIC: 3 µg/mL (≈ 6.13 µM)
[6]; fungus F, no visible growth after 72 hours at 35° C, read-out: MIC
  MIC: 2 µg/mL (≈ 4.08 µM)
[7]; fungus E, no visible growth after 72 hours at 35° C, read-out: MIC
  MIC: 1.5 µg/mL (≈ 3.06 µM)
[8]
  MIC: 2 µg/mL (≈ 4.08 µM)
[9]
  MIC: 8 µg/mL (≈ 16.3 µM)
[10]
  MIC: 2 µg/mL (≈ 4.08 µM)
[11]
  ED50 (µg/mL): 14,20 µg/mL
[12]
  MIC: 2 µg/mL (≈ 4.08 µM)
[13]
  ED50 (µg/mL): 21,26 µg/mL

## NC[C@@H]1O[C@H](O[C@H]2[C@@H](O)[C@H](O[C@@H]3[C@@H](O)[C@H](N)C[C@H](N)[C@H]3O[C@H]3O[C@H](CO)[C@@H](O)[C@H](O)[C@H]3N)O[C@@H]2CO)[C@H](N)[C@@H](O)[C@@H]1O [paromomycin]
Leishmaniasis
  efficient in % of the cases: 95%
